Experimental data: patent US11666658B2, “Rifamycin analogs and antibody-drug conjugates thereof” (Regeneron Pharmaceuticals, Inc., priority 2018, dated 2023)
Values after ≈ are worked out from the molar mass of the structure shown. Each block holds one compound with its values, some of them ahead of it.

Experiments:
S. aureus NRS384 [1] = assay: Broth minimum inhibitory concentration (MIC) assay 1, S. aureus growth inhibition; type: cell-based, Staphylococcus aureus; conditions: S. aureus NRS384 in TSB, 24 h at 37° C., OD600 nm; for MIC: Staphylococcus aureus
Description: To test the potency of rifamycin analogs of the disclosure in vitro, a broth growth inhibition assay was developed. For the assay, S. aureus NRS384 was grown in Tryptic Soy Broth (TSB) overnight, then sub-cultured 1:50 in fresh TSB and grown for an additional two hours. The culture was then pelleted via centrifugation and washed twice in PBS. The culture was then diluted to 1×10^4 cfu/mL in TSB and 50 μL of the suspension was added per well to a 96 well microtiter dish in duplicate. A dilution series of the indicated antibiotic (an analog according to the disclosure or a previously known analog Rifampicin) was added 1:1 for a final starting concentration of 1×10^−5 M with 1:3 dilutions. The plates were incubated at 37° C. with shaking for 24 h and then the OD600 nm was read on a Spectramax i3 Minimax 300.
A plot of the S. aureus inhibition assay conducted with rifamycin analogs according to the disclosure is shown as FIG. 1.

[2] = test system: intracellular S. aureus NRS384 in THP-1 macrophages; assay: Intracellular killing assay 1 (rifamycin analogs, S. aureus in THP-1 macrophages); type: cell-based, Staphylococcus aureus; conditions: for MIC: Staphylococcus aureus, NRS384, lowest concentration that resulted in intracellular S. aureus eradication
Description: THP-1 monocytic cell line was grown in media (RMPI+10% FBS+1% Penicillin/Streptomycin), then seeded at a density of 1e5 cells/well in a 96 well plate and differentiated into macrophages for three days prior to infection using 200 nM PMA. An overnight culture of S. aureus NRS384 was grown in RPMI, washed twice with PBS and resuspended at 1e7 cfu/mL in PBS. THP-1 were washed with warm media (RMPI without FBS) to remove the Penicillin/Streptomycin and then infected with the S. aureus suspension at a multiplicity of infection of 10:1 (S. aureus: macrophages). Plates were spun at 300×g for 5 minutes to synchronize adhesion of the bacteria, then incubated at 37° C. for 2 hours. Free-floating bacteria were removed by washing 2× with warm media and remaining extracellular S. aureus were killed by addition of media containing gentamicin (50 ug/mL). After 1 h, media was aspirated and the indicated compound was added to infected macrophages in media containing 50 µg/mL gentamicin to prevent extracellular growth of S. aureus. After 2 h, plates were washed 2× with warm RPMI without FBS, and 100 ul of THP-1 lysis buffer (0.1% Triton in PBS) was added to each well. S. aureus survival was enumerated by colony forming units through serial dilution and plating onto TSA.

S. aureus NRS384 [3] = assay: Broth minimum inhibitory concentration (MIC) assay 2; type: cell-based, Staphylococcus aureus; conditions: Staphylococcus aureus; S. aureus NRS384 in TSB, 24 hours at 37° C., OD600; median of at least two independent experiments; read-out: S. aureus Broth MIC
Outline: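 S. aureus NRS384, washed and diluted to 1×10^6 cfu/mL in TSB, incubated with compound in triplicate at 37° C with shaking for 24 hours. Growth read as OD600 nm; MIC reported as median of at least two independent experiments.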

[4] = test system: intracellular S. aureus NRS384 in THP-1 macrophages; assay: Intracellular killing assay 2 (rifamycin analogs, S. aureus in THP-1 macrophages); type: cell-based, Staphylococcus aureus; conditions: Staphylococcus aureus, NRS384, 2 h; lowest concentration giving intracellular S. aureus below limit of detection (50 cfu/mL) in THP-1 macrophages; median of at least two experiments; read-out: S. aureus Intracellular killing MIC
Outline: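 PMA-differentiated THP-1 cells were infected at MOI 10:1 for 2 h at 37 °C, then extracellular bacteria were killed with gentamicin. Compounds were given for 2 h in gentamicin-containing media. Cells were lysed in 0.1% Triton and surviving bacteria counted as CFU on TSA; median of ≥2 independent experiments.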

[5] = test system: S. aureus MSRA strain NRS384; assay: S. aureus IV disseminated infection mouse model (4 day model, Balb/c mice), kidney burden; type: in vivo; conditions: 4 day infection model, mAb or conjugate 1 mg/kg, with vancomycin treatment, limit of detection 250 cfu
Description: S. aureus MSRA strain NRS384 was grown overnight in Tryptic soy broth (TSB) and sub-cultured to mid-logarithmic phase. Bacteria were then washed twice with PBS and resuspended in PBS at a concentration of 1.5×10^8 cfu/mL. […] Mice were monitored for weight loss and body conditioning score throughout the infection. […] For quantification, the kidneys were homogenized followed by enumeration of colony forming units through serial dilution in PBS and plating onto trypticase soy agar plates.

[6] = test system: S. aureus MSRA strain NRS384; assay: S. aureus IV advanced disseminated infection mouse model (8 day model, Balb/c mice), kidney burden; type: in vivo
Description: To test the efficacy of anti-S. aureus Ab-antibiotic ncADCs of the disclosure in combination therapy with standard of care vancomycin in vivo, two different 8 day intravenous disseminated infection models was performed. […] S. aureus MSRA strain NRS384 was grown overnight in Tryptic soy broth (TSB) and sub-cultured to mid-logarithmic phase. Bacteria were then washed twice with PBS and resuspended in PBS at a concentration of 1.5×10^8 cfu/mL. Balb/c mice were then infected intravenously through the tail vein with 100 uL of the bacterial suspension, for a final infectious dose of […]. In the first study, mice were treated either vancomycin alone, an isotype control antibody plus vancomycin, an isotype control Ab-ncADC (Isotype control-36) plus vancomycin, an anti-WTA antibody plus vancomycin, an anti-WTA Ab-Antibiotic ncADC (anti-WTA Ab-Antibiotic ncADC-36), or a different anti-WTA Ab-Antibiotic ncADC (anti-WTA Ab-Antibiotic ncADC-25) plus vancomycin. Mice were also treated either vancomycin alone, an isotype control antibody plus vancomycin, an isotype control Ab-Antibiotic ncADC (Isotype control Ab-Antibiotic ncADC-36) plus vancomycin, an anti-Protein A antibody plus vancomycin, or an anti-Protein A Ab-Antibiotic ncADC (anti-Protein A Ab-Antibiotic ncADC-36).
In the second study, mice were treated either vancomycin alone, an isotype control antibody plus vancomycin, an isotype control Ab-Antibiotic ncADC (Isotype control Ab-Antibiotic ncADC-36) plus vancomycin, a second isotype control Ab-Antibiotic ncADC (Isotype control Ab-Antibiotic ncADC-25) plus vancomycin, a third isotype control Ab-Antibiotic ncADC (Isotype control Ab-Antibiotic ncADC-21) plus vancomycin, an anti-WTA antibody plus vancomycin, an anti-WTA Ab-Antibiotic ncADC (anti-WTA Ab-Antibiotic ncADC-36), a second anti-WTA Ab-Antibiotic ncADC (anti-WTA Ab-Antibiotic ncADC-25) plus vancomycin, or a third anti-WTA Ab-Antibiotic ncADC (anti-WTA Ab-Antibiotic ncADC-21) plus vancomycin. In all studies, for treatment groups that included vancomycin, it was dosed from three to seven days post infection at 110 mg/kg subcutaneously twice daily. For treatment groups that included antibodies and ncADCs, they were administered four days after infection subcutaneously at 2 mg/kg for the first study or 5 mg/kg for the second study. A no treatment infected control and an uninfected control were included in each of the studies. Mice were monitored for weight loss and body conditioning score throughout the infection. At eight days post infection, mice were euthanized, and the S. aureus kidney burden was quantified. For quantification, the kidneys were homogenized followed by enumeration of colony forming units through serial dilution in PBS and plating onto trypticase soy agar plates. Data points represent the kidney burden from individual mice tested.

MIC (S. aureus NRS384 [1]): 0.041 µM (≈ 0.0352 µg/mL)
SMILES: CNCCOc1ccc2nc3c4c5c6c(C)c(O)c4c(=O)c(c-3oc2c1)NC(=O)/C(C)=C\C=C\[C@H](C)[C@H](O)[C@@H](C)[C@@H](O)[C@@H](C)[C@H](OC(C)=O)[C@H](C)[C@@H](OC)/C=C/O[C@@](C)(O6)C5=O [Analog 16d]
intracellular S. aureus killing capacity compared to rifampicin (in words) [2]: increased intracellular S. aureus killing capacity compared to rifampicin
MIC ([2]; 2 h with compound): 1 µM (≈ 0.858 µg/mL)

MIC (S. aureus NRS384 [1]): 0.0046 µM (≈ 0.00388 µg/mL)
SMILES: CO[C@H]1/C=C/O[C@@]2(C)Oc3c(C)c(O)c4c(=O)c(c5oc6cc(OCCN)ccc6nc-5c4c3C2=O)NC(=O)/C(C)=C\C=C\[C@H](C)[C@H](O)[C@@H](C)[C@@H](O)[C@@H](C)[C@H](OC(C)=O)[C@@H]1C [Analog 16e]
intracellular S. aureus killing capacity compared to rifampicin (in words) [2]: increased intracellular S. aureus killing capacity compared to rifampicin
MIC ([2]; 2 h with compound): 1 µM (≈ 0.844 µg/mL)

S. aureus Broth MIC (S. aureus NRS384 [1]): 0.0046 µM
MIC (S. aureus NRS384 [3]): 0.00391 µM (≈ 0.00322 µg/mL)
SMILES: CO[C@H]1/C=C/O[C@@]2(C)Oc3c(C)c(O)c4c(O)c(c(/C=N/N5CCN(C)CC5)c(O)c4c3C2=O)NC(=O)/C(C)=C\C=C\[C@H](C)[C@H](O)[C@@H](C)[C@@H](O)[C@@H](C)[C@H](OC(C)=O)[C@@H]1C [Rifampicin, rifampicin, reference compound]
Intracellular killing MIC ([2]; lowest concentration that resulted in intracellular S. aureus eradication, 2 h with compound): >1.0E−06
MIC [4]: 1 µM (≈ 0.823 µg/mL)

SMILES: CN[C@H](CC(C)C)C(=O)N[C@H]1C(=O)N[C@@H](CC(N)=O)C(=O)N[C@H]2C(=O)N[C@H]3C(=O)N[C@H](C(=O)N[C@H](C(=O)O)c4cc(O)cc(O)c4-c4cc3ccc4O)[C@H](O)c3ccc(c(Cl)c3)Oc3cc2cc(c3O[C@@H]2O[C@H](CO)[C@@H](O)[C@H](O)[C@H]2O[C@H]2C[C@](C)(N)[C@H](O)[C@H](C)O2)Oc2ccc(cc2Cl)[C@H]1O [vancomycin]
Median cfu/kidney pair [5]: 4.38E+05 cfu/kidney pair
Median cfu/kidney pair ([6]; Balb/c mice, 8 day model, first study (Table 37, anti-Protein A), mAb or conjugate 2 mg/kg, with vancomycin treatment): 7.25E+06 cfu/kidney pair
Median cfu/kidney pair ([6]; Balb/c mice, 8 day model, second study (Table 38), mAb or conjugate 5 mg/kg, with vancomycin treatment): 1.88E+06 cfu/kidney pair
reduction of S. aureus kidney burden ([6]; first study, vancomycin alone 110 mg/kg subcutaneously twice daily day 3 to 7, kidneys at day 8): 1-2 logs
Median cfu/kidney pair ([6]; in vivo): 7.25E+06 cfu/kidney pair
reduction of S. aureus kidney bacterial burden ([6]; second study, vancomycin alone): 1-2 logs
